Data: article PMC7035970 (Cell chemical biology, 2019)
In brackets after ≈: the same amount, converted by molar mass.

Legend:
[1] = tested on: M. tuberculosis strain JSF-Mtb-1 (fbiC F567S, inhA promoter c(−15)t); format: cell-based, Mycobacterium tuberculosis
[2] = tested on: M. tuberculosis strain DRM12 (katG S315T); format: cell-based, Mycobacterium tuberculosis
[3] = tested on: M. tuberculosis strain fgd1∷tn; experiment: MIC versus F420H2 deficient strain fgd1∷tn; format: cell-based, Mycobacterium tuberculosis; conditions: Mycobacterium tuberculosis
[4] = tested on: M. tuberculosis strain mc^24914 (inhA promoter c(−15)t); experiment: microbe, parasite or virus in culture; format: cell-based, Mycobacterium tuberculosis; conditions: for MIC: Mycobacterium tuberculosis
[5] = tested on: M. tuberculosis strain ddn∷tn; experiment: microbe, parasite or virus in culture; format: cell-based, Mycobacterium tuberculosis; conditions: for MIC: Mycobacterium tuberculosis
M. tuberculosis H37Rv = conditions: introduction, no reference given; cited from earlier work
[6] = tested on: spontaneous M. tuberculosis JSF-2019 resistant mutant strains; format: cell-based, Mycobacterium tuberculosis
[7] = tested on: M. tuberculosis clinical strains TDR31, TDR36, and TDR116; format: cell-based, Mycobacterium tuberculosis

SMILES	MIC [1] [µM]	MIC [2] [µM]	MIC shift / loss of efficacy, DRM12 (KatG S315T) versus H37Rv [2]	MIC [3] [µM]	MIC shift, mc^24914 (inhA overexpression) versus H37Rv [4]	MIC [4] [µM]	loss of susceptibility, ddn∷tn versus wild type H37Rv [5] [x]	MIC [5] [µM]	loss of potency from any one resistance mutation (M. tuberculosis H37Rv) [fold]	MIC [6] [µM]	MIC shift versus the parental strain H37Rv [6] [x]	activity versus clinical isolates with the KatG S315T mutation [7]	MIC change, JSF-Mtb-1 versus H37Rv [1] [x]
O=[N+]([O-])c1ccc(/C=N/Nc2nc(Nc3ccccc3)nc(N3CCOCC3)n2)o1 [JSF-2513, (E)-4-morpholino-6-(2-((5-nitrofuran-2-yl)methylene)hydrazineyl)-N-phenyl-1,3,5-triazin-2-amine]	20 (≈ 8.21 µg/mL)	0.63 (≈ 0.259 µg/mL)	lack of an MIC shift	10 (≈ 4.1 µg/mL)	four-fold	2.5 (≈ 1.03 µg/mL)	2	1.3 (≈ 0.534 µg/mL)	–	–	–	–	–
C[C@]1(COc2ccc(N3CCC(Oc4ccc(OC(F)(F)F)cc4)CC3)cc2)Cn2cc([N+](=O)[O-])nc2O1 [delamanid]	–	–	–	–	–	–	–	–	≥ 500	–	–	–	–
O=[N+]([O-])c1cn2c(n1)OC[C@@H](OCc1ccc(OC(F)(F)F)cc1)C2 [Pretomanid, reference compound]	>40	0.039 (≈ 0.014 µg/mL)	–	> 40	–	0.16 (≈ 0.0575 µg/mL)	> 1000	–	≥ 500	–	–	–	–
NNC(=O)c1ccncc1 [INH, reference compound]	1.25 (≈ 0.171 µg/mL)	>10	> 62 fold	0.16 (≈ 0.0219 µg/mL)	8 x	1.25 (≈ 0.171 µg/mL)	–	0.16 (≈ 0.0219 µg/mL)	–	0.16 (≈ 0.0219 µg/mL)	8	–	–
O=[N+]([O-])c1ccc(/C=N/Nc2nc(Nc3ccccc3)nc(Nc3ccccc3)n2)o1 [JSF-2019, (E)-6-(2-((5-nitrofuran-2-yl)methylene)hydrazinyl)-N2,N4-diphenyl-1,3,5-triazine-2,4-diamine]	5.0 (≈ 2.08 µg/mL)	0.078 (≈ 0.0325 µg/mL)	lack of an MIC shift	1.3 (≈ 0.541 µg/mL)	8 x	0.63 (≈ 0.262 µg/mL)	8	0.63 (≈ 0.262 µg/mL)	–	–	–	maintained its wild type strain activity	64
